Laboratory results published in PubChem BioAssay AID256 (DTP/NCI, 2004).
“And” between values parts separate entries of the source, which are not always exact repeats. Identical values can stand only once. Toxic doses and inconclusive results are not listed. How the source made its calls: active means survival T/C of 150% or more; inactive means T/C below 125% in these data.

System: CD2F1 mice, L1210 leukemia ip, survival T/C
Experiment: NCI In Vivo Anticancer Drug Screen. Data for tumor model L1210 Leukemia (intraperitoneal) in CD2F1 (CDF1) mice
Conditions: higher = longer survival
Summary of the method: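 Mice carrying a transplanted tumor received test compound or vehicle alone. The value is the measurement in the treated group divided by that in the vehicle-treated control group.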

[1] = endpoint: mean survival time, dose: 100.0 mg/kg/injection, schedule: Q04DX003 (ip), vehicle: saline with Tween-80
[2] = endpoint: mean survival time, dose: 200.0 mg/kg/injection, schedule: Q04DX003 (ip), vehicle: saline with Tween-80
[3] = endpoint: mean survival time, dose: 400.0 mg/kg/injection, schedule: Q04DX003 (ip), vehicle: saline with Tween-80
[4] = endpoint: mean survival time, dose: 100.0 mg/kg/injection, schedule: Q01DX009 (ip), vehicle: saline with Tween-80
[5] = endpoint: mean survival time, dose: 200.0 mg/kg/injection, schedule: Q01DX009 (ip), vehicle: saline with Tween-80
[6] = endpoint: mean survival time, dose: 400.0 mg/kg/injection, schedule: Q01DX009 (ip), vehicle: saline with Tween-80

Measured: T/C

O=C(O)CC(=O)O.[NH-]CC(O)C[NH-].[Pt+2]
inactive: endpoint: median survival time, dose: 20.0 mg/kg/injection, schedule: Q04DX003 (ip), vehicle: water 96 % of control | endpoint: median survival time, dose: 40.0 mg/kg/injection, schedule: Q04DX003 (ip), vehicle: water 110 % of control

CCCCCCCCCCCCCCCCN(C)S(=O)(=O)c1cccc(S(=O)(=O)F)c1
inactive: [1] 95 % of control | [2] 101 % of control | [3] 102 % of control

CC(=O)c1c(C(C)C)cc(C(C)C)cc1C(C)C
inactive: [4] 98 % of control | [5] 101 % of control | [6] 101 % of control

CCC1(C)CCC2(C)C(CCC3C2CCCC3(C)CO)C1 (stereo not drawn)
inactive: endpoint: mean survival time, dose: 100.0 mg/kg/injection, schedule: Q01DX001 (ip), vehicle: saline with Tween-80 94 % of control | endpoint: mean survival time, dose: 200.0 mg/kg/injection, schedule: Q01DX001 (ip), vehicle: saline with Tween-80 88 % of control | endpoint: mean survival time, dose: 400.0 mg/kg/injection, schedule: Q01DX001 (ip), vehicle: saline with Tween-80 96 % of control

Nc1cc(Cl)c(Cl)cc1Cl
inactive: endpoint: mean survival time, dose: 50.0 mg/kg/injection, schedule: Q01DX009 (ip), vehicle: saline with Tween-80 93 % of control | [4] 106 % of control | [1] 100 % of control | [5] 95 % of control | [2] 94 % of control | [6] 108 % of control

COC(=O)c1n[nH]c(C(C)C)c1N=NN(C)C
inactive: endpoint: mean survival time, dose: 37.5 mg/kg/injection, schedule: Q01DX009 (ip), vehicle: saline with Tween-80 106 % of control | endpoint: mean survival time, dose: 75.0 mg/kg/injection, schedule: Q01DX009 (ip), vehicle: saline with Tween-80 121 % of control | endpoint: mean survival time, dose: 150.0 mg/kg/injection, schedule: Q01DX009 (ip), vehicle: saline with Tween-80 92 % of control

O=C(CC(C(=O)c1ccccc1)c1ccccc1)c1ccccc1 (stereo not drawn)
inactive: endpoint: mean survival time, dose: 100.0 mg/kg/injection, schedule: Q01DX001 (ip), vehicle: Klucel (hydroxypropylcellulose) (HPC) 90 % of control | endpoint: mean survival time, dose: 200.0 mg/kg/injection, schedule: Q01DX001 (ip), vehicle: Klucel (hydroxypropylcellulose) (HPC) 101 % of control | endpoint: mean survival time, dose: 400.0 mg/kg/injection, schedule: Q01DX001 (ip), vehicle: Klucel (hydroxypropylcellulose) (HPC) 98 % of control

C#CCN(C)/N=N/c1nc[nH]c1C(N)=O
inactive: endpoint: mean survival time, dose: 12.5 mg/kg/injection, schedule: Q01DX009 (ip), vehicle: Klucel (hydroxypropylcellulose) (HPC) 123 % of control | endpoint: mean survival time, dose: 200.0 mg/kg/injection, schedule: Q01DX009 (ip), vehicle: Klucel (hydroxypropylcellulose) (HPC) 98 % of control

CC(C)(C)Sc1cccnc1 (tested in a mixture with another compound)
inactive: [4] 92 % of control | [5] 93 % of control

Cc1nc(N)nc(N)c1-c1ccc(Cl)c(Cl)c1
inactive: endpoint: mean survival time, dose: 1.0 mg/kg/injection, schedule: Q01DX009 (ip), vehicle: Klucel (hydroxypropylcellulose) (HPC) 106 % of control | endpoint: mean survival time, dose: 1.0 mg/kg/injection, schedule: Q01DX009 (ip), vehicle: saline with Tween-80 107 % of control | endpoint: mean survival time, dose: 1.0 mg/kg/injection, schedule: Q02DX005 (ip), vehicle: saline 115 % of control | endpoint: mean survival time, dose: 1.25 mg/kg/injection, schedule: Q01DX005 (ip), vehicle: distilled water + Tween-80 95 % of control | endpoint: mean survival time, dose: 1.25 mg/kg/injection, schedule: Q01DX005 (ip), vehicle: water 104 % of control | endpoint: mean survival time, dose: 1.3 mg/kg/injection, schedule: Q01DX009 (sc), vehicle: other 123 % of control | endpoint: mean survival time, dose: 2.0 mg/kg/injection, schedule: Q01DX009 (ip), vehicle: Klucel (hydroxypropylcellulose) (HPC) 107 % of control | endpoint: mean survival time, dose: 2.0 mg/kg/injection, schedule: Q01DX009 (ip), vehicle: saline with Tween-80 119 % of control | endpoint: mean survival time, dose: 2.0 mg/kg/injection, schedule: Q02DX005 (ip), vehicle: saline 115 % of control | endpoint: mean survival time, dose: 2.5 mg/kg/injection, schedule: Q01DX005 (ip), vehicle: distilled water + Tween-80 93 % of control | endpoint: mean survival time, dose: 2.5 mg/kg/injection, schedule: Q01DX005 (ip), vehicle: water 100 % of control | endpoint: mean survival time, dose: 4.0 mg/kg/injection, schedule: Q01DX009 (ip), vehicle: Klucel (hydroxypropylcellulose) (HPC) 109 % of control | endpoint: mean survival time, dose: 4.0 mg/kg/injection, schedule: Q02DX005 (ip), vehicle: saline 107 % of control | endpoint: mean survival time, dose: 4.0 mg/kg/injection, schedule: Q03DX002 (ip), vehicle: saline with Tween-80 108 % of control | endpoint: mean survival time, dose: 5.0 mg/kg/injection, schedule: Q01DX005 (ip), vehicle: distilled water + Tween-80 98 % of control | endpoint: mean survival time, dose: 5.0 mg/kg/injection, schedule: Q01DX005 (ip), vehicle: water 100 % of control | endpoint: mean survival time, dose: 5.0 mg/kg/injection, schedule: Q02DX005 (ip), vehicle: saline 87 % of control | endpoint: mean survival time, dose: 5.0 mg/kg/injection, schedule: Q## X005 (ip), vehicle: saline 117 % of control | endpoint: mean survival time, dose: 6.0 mg/kg/injection, schedule: Q03DX002 (ip), vehicle: saline with Tween-80 103 % of control | endpoint: mean survival time, dose: 8.0 mg/kg/injection, schedule: Q03DX002 (ip), vehicle: saline with Tween-80 93 % of control | endpoint: mean survival time, dose: 10.0 mg/kg/injection, schedule: Q01DX005 (ip), vehicle: distilled water + Tween-80 102 % of control | endpoint: mean survival time, dose: 10.0 mg/kg/injection, schedule: Q01DX005 (ip), vehicle: water 98 % of control | endpoint: mean survival time, dose: 10.0 mg/kg/injection, schedule: Q03DX002 (ip), vehicle: saline with Tween-80 110 % of control | endpoint: mean survival time, dose: 10.0 mg/kg/injection, schedule: Q## X005 (ip), vehicle: saline 102 % of control | endpoint: mean survival time, dose: 12.0 mg/kg/injection, schedule: Q03DX002 (ip), vehicle: saline with Tween-80 117 % of control | endpoint: mean survival time, dose: 16.0 mg/kg/injection, schedule: Q01DX009 (ip), vehicle: Klucel (hydroxypropylcellulose) (HPC) 111 % of control | endpoint: mean survival time, dose: 20.0 mg/kg/injection, schedule: Q01DX005 (ip), vehicle: distilled water + Tween-80 100 % of control | endpoint: mean survival time, dose: 20.0 mg/kg/injection, schedule: Q01DX005 (ip), vehicle: water 98 % of control | endpoint: mean survival time, dose: 20.0 mg/kg/injection, schedule: Q04DX002 (ip), vehicle: saline 97 % of control | endpoint: mean survival time, dose: 20.0 mg/kg/injection, schedule: Q## X005 (ip), vehicle: saline 88 % of control | endpoint: mean survival time, dose: 30.0 mg/kg/injection, schedule: Q04DX002 (ip), vehicle: saline 107 % of control | endpoint: mean survival time, dose: 40.0 mg/kg/injection, schedule: Q04DX002 (ip), vehicle: saline 118 % of control and 103 % of control | endpoint: mean survival time, dose: 50.0 mg/kg/injection, schedule: Q04DX002 (ip), vehicle: saline 100 % of control | endpoint: mean survival time, dose: 60.0 mg/kg/injection, schedule: Q04DX002 (ip), vehicle: saline 108 % of control | endpoint: mean survival time, dose: 75.0 mg/kg/injection, schedule: Q04DX003 (ip), vehicle: saline 118 % of control | endpoint: median survival time, dose: 0.62 mg/kg/injection, schedule: Q01DX009 (ip), vehicle: saline 96 % of control | endpoint: median survival time, dose: 1.25 mg/kg/injection, schedule: Q01DX009 (ip), vehicle: saline 97 % of control | endpoint: median survival time, dose: 5.0 mg/kg/injection, schedule: Q01DX009 (ip), vehicle: saline 111 % of control | endpoint: median survival time, dose: 10.0 mg/kg/injection, schedule: Q01DX009 (ip), vehicle: saline 113 % of control | endpoint: median survival time, dose: 20.0 mg/kg/injection, schedule: Q01DX009 (ip), vehicle: saline 97 % of control

O=C1OC(c2ccc(O)cc2)(c2ccc(O)cc2)c2ccccc21
inactive: [4] 95 % of control | [1] 107 % of control | [5] 91 % of control | [2] 94 % of control | [6] 89 % of control | [3] 93 % of control

O=C(OC1C(COP(=O)(Oc2ccccc2)Oc2ccccc2)OC(n2nc(SCc3ccccc3)c(=O)[nH]c2=O)C1OC(=O)c1ccccc1)c1ccccc1 (stereo not drawn)
inactive: endpoint: median survival time, dose: 12.5 mg/kg/injection, schedule: Q01DX005 (ip), vehicle: distilled water + Tween-80 96 % of control | endpoint: median survival time, dose: 25.0 mg/kg/injection, schedule: Q01DX005 (ip), vehicle: distilled water + Tween-80 96 % of control | endpoint: median survival time, dose: 50.0 mg/kg/injection, schedule: Q01DX005 (ip), vehicle: distilled water + Tween-80 97 % of control | endpoint: median survival time, dose: 100.0 mg/kg/injection, schedule: Q01DX005 (ip), vehicle: distilled water + Tween-80 97 % of control | endpoint: median survival time, dose: 200.0 mg/kg/injection, schedule: Q01DX005 (ip), vehicle: distilled water + Tween-80 96 % of control
